Test results taken from publication doi:10.1101/2022.06.29.498187v1 (bioRxiv, 2022).

Tests used:
human GHSR1a [1] = molecular target: T1, human GHSR1a (Homo sapiens, UniProt Q92847); assay: Receptor activation assay, CRE-controlled NanoLuc reporter; assay type: cell-based
human GHSR1a [2] = molecular target: T1, human GHSR1a; assay: NanoBiT-based homogenous binding assay; conditions: ghrelin-SmBiT and LEAP2-SmBiT tracers

T1 sequence (Q92847 whole entry): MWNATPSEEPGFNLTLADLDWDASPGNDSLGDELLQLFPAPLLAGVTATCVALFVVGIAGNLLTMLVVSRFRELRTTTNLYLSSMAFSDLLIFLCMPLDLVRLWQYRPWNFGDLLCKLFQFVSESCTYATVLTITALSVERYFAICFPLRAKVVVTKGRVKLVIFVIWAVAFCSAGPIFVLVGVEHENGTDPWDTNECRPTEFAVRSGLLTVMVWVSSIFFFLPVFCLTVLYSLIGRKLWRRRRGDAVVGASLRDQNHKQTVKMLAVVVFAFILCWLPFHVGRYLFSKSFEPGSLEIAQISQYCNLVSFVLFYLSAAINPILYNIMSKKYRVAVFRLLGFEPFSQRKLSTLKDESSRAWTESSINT

fold lower receptor activation potency compared to native human ghrelin (human GHSR1a [1]): ~7 fold | fold lower receptor binding activity compared to native human ghrelin (human GHSR1a [2]): ~15 fold
Structure (SMILES): CCCCCSC[C@H](NC(=O)[C@H](CO)NC(=O)CN)C(=O)N[C@@H](Cc1ccccc1)C(=O)N[C@@H](CC(C)C)C(=O)N[C@@H](CO)C(=O)N1CCC[C@H]1C(=O)N[C@@H](CCC(=O)O)C(=O)N[C@@H](Cc1c[nH]cn1)C(=O)N[C@@H](CCC(N)=O)C(=O)N[C@@H](CCCNC(=N)N)C(=O)N[C@H](C(=O)N[C@@H](CCC(N)=O)C(=O)N[C@@H](CCC(N)=O)C(=O)N[C@@H](CCCNC(=N)N)C(=O)N[C@@H](CCCCN)C(=O)N[C@@H](CCC(=O)O)C(=O)N[C@@H](CO)C(=O)N[C@@H](CCCCN)C(=O)N[C@@H](CCCCN)C(=O)N1CCC[C@H]1C(=O)N1CCC[C@H]1C(=O)N[C@@H](C)C(=O)N[C@@H](CCCCN)C(=O)N[C@@H](CC(C)C)C(=O)N[C@@H](CCC(N)=O)C(=O)N1CCC[C@H]1C(=O)N[C@@H](CCCNC(=N)N)C(=O)O)C(C)C [analog 1]
